Measured values from article PMC5727165, “A switch in nucleotide affinity governs activation of the Src and Tec family kinases” (Scientific Reports, 2017).
Values joined by “and” are separate entries in the source; they are usually repeats but may differ in a detail not shown here. Equal values may be shown once. “Also recorded” adds a separate entry of the source.

Experiments:
Itk^32K [1] = target: T1, Itk^32K (Homo sapiens, UniProt Q08881); experiment: Differential scanning fluorimetry (thermal stability vs nucleotide concentration); format: binding; conditions: same nucleotide concentrations, vs ATP or AMPPNP
T1 construct: Human Itk^171–620 (Itk^32K); GST (cleaved yes); made in house; host or cells: baculovirus-infected Sf9 insect cells
T1 sequence (Q08881 171-620): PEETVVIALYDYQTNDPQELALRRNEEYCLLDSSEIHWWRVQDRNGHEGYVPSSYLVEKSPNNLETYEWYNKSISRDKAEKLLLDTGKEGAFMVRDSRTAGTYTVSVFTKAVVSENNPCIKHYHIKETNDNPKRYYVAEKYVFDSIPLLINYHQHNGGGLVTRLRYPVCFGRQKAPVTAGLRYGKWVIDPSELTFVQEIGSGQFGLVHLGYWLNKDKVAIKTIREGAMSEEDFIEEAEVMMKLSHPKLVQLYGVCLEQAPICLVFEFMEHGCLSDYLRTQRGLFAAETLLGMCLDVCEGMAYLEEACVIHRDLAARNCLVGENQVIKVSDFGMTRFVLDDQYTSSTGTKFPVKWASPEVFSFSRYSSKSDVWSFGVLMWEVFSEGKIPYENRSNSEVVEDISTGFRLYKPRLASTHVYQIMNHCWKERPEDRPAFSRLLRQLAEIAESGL
Method: (§1) We noted that the thermal stability of Src^32K initially decreases at low concentrations of ATP, before rising again at higher concentrations. This was reproducible and correlates with autophosphorylation of Tyr416 during the course of the assay (Supplementary Fig. 4h). Thermal stabilities as a function of nucleotide concentration were measured by differential scanning fluorimetry (DSF). Samples contained 0.1 mg/ml protein in 50 mM Tris pH 7.5, 150 mM NaCl, 1 mM TCEP, and 5 mM MgCl2 with ADP, ATP, or AMPPNP concentrations ranging from 0–16 mM. Samples were measured in triplicate using a BioRad iQ™5 Multicolor Real-Time PCR Detection System. For detection of phosphorylated protein, samples were diluted and 1 ng and 15 ng were loaded to SDS-PAGE for Src and Itk proteins, respectively. Phosphorylation was measured by immunoblot.

Src^32K [2] = target: T2, Src^32K (Mus musculus, UniProt P05480); experiment: as above; format: binding
T2 construct: mouse Src^85-535 (Src^32K); GST (cleaved yes); made in house; host or cells: baculovirus-infected Sf9 insect cells, co-expressed with human Csk
T2 sequence (P05480 85-535): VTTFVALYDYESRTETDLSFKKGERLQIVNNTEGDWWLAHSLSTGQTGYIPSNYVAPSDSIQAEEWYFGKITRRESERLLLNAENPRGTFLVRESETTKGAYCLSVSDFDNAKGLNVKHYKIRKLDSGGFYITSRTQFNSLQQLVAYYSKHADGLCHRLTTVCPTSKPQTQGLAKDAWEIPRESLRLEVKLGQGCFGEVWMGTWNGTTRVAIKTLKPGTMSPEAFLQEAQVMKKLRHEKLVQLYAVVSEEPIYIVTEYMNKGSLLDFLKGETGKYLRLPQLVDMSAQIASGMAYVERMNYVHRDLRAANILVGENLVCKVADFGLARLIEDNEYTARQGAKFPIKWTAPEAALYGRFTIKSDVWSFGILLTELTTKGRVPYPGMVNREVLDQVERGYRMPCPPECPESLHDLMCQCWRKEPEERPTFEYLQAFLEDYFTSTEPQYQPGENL
Method: as §1

Itk^32K [3] = target: T1, Itk^32K; experiment: Fluorescence anisotropy binding of Mant-labelled nucleotides; conditions: wild type Itk^32K; 40 μM Mant-nucleotide, 20 °C
From the text: (§2) To characterise the nucleotide binding of Itk and Src, we purified recombinant wild type and mutant constructs of Itk and Src containing their respective SH3, SH2, and kinase domains (from here on referred to as Itk^32K, Src^32K, and Src^32KΔC, Fig. 1a). We confirmed the mass and homogeneity of isolated species by high-resolution anion exchange chromatography, intact mass spectrometry, and Western blotting with phospho-specific antibodies (Supplementary Figs 1–3). We performed fluorescence anisotropy measurements using Mant-labelled nucleotides. […] To avoid autophosphorylation during the course of the titration, we used the non-hydrolysable ATP analogue AMPPNP. […] Src^32K bound ADP approximately 6-fold more tightly than AMPPNP (Supplementary Fig. 4d).
(§3) Human Itk^171–620 (Itk^32K), mouse Src^85-535 (Src^32K), and mouse Src^85-523 (Src^32KΔC) as well as their respective point mutants were expressed as GST fusions in baculovirus-infected Sf9 insect cells. For the generation of Tyr527-phosphorylated Src^85-535, the protein was co-expressed with human Csk using pFastBac Dual (Invitrogen). Proteins were purified by sequential glutathione-sepharose affinity chromatography, TEV cleavage, high-resolution anion exchange, and size exclusion chromatography in a final buffer of 50 mM Tris, pH 7.5, 200 mM NaCl, 1 mM TCEP, 1% (v/v) glycerol.
(§4) The binding constants for ADP and AMPPNP were determined for Src and Itk proteins by fluorescence anisotropy, using 2′/3′-Mant-labelled nucleotides (Jena Bioscience). Increasing concentrations of Itk^32K, Itk^L351A or Src^32K were incubated with 40 μM Mant-nucleotide in 30 mM Tris pH 7.5, 200 mM NaCl, 5 mM MgCl2, and 1 mM TCEP. Measurements were made with a Perkin Elmer LS50B fluorimeter (λex = 355 nm, λem = 447 nm) at 20 °C. For each data point 50–60 measurements, each with an integration time of 1 s, were averaged. For competition nucleotide displacement assays, 40–80 μM of protein was incubated with 40 μM Mant-ADP until equilibrium was established. Unlabelled nucleotide was titrated into the reaction and fluorescence anisotropy monitored. The equilibrium inhibition constant for the unlabelled nucleotide was calculated from the fitted curve.

Src^32K [4] = target: T2, Src^32K; experiment: as above
From the text: as §2, §3, §4

Src^32KΔC = target: T3, Src^32KΔC (Mus musculus, UniProt P05480); experiment: Competition nucleotide displacement assay (Mant-ADP, fluorescence anisotropy); format: binding
T3 construct: mouse Src^85-523 (Src^32KΔC); GST (cleaved yes); made in house; host or cells: baculovirus-infected Sf9 insect cells
T3 sequence (P05480 85-523, stated change not applied): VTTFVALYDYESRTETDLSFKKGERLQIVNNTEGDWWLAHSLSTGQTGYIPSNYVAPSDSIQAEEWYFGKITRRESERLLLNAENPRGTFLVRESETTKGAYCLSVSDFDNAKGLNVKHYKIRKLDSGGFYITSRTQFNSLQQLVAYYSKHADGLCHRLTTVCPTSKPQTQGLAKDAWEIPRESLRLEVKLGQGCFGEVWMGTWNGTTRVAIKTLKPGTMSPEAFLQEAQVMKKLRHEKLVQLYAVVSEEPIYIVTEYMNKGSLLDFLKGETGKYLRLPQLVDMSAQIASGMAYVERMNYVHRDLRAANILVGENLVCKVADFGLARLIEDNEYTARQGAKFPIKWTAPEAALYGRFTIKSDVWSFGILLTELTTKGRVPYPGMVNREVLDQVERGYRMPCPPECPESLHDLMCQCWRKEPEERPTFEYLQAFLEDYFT
Method: Figure 2 Itk adopts a Src-like autoinhibited conformation. (a) Competition nucleotide displacement assay for Src^32KΔC. 40 μM Src^32KΔC was incubated with 40 μM Mant-ADP until equilibrium was established. Unlabelled ADP or AMPPNP was titrated into the reaction and fluorescence anisotropy monitored. […] (b) Small angle X-ray scattering curves for Itk^32K (cyan), Src^32K (magenta), Src^32KΔC (blue), and Src^32K R175L (green). […] (d) Table of physical parameters obtained from the scattering curves for Itk^32K, Src^32K, Src^32KΔC, and Src^32K R175L. (e)Ab initio model of Itk^32K and docking of autoinhibited Src (2SRC.pdb) into the molecular envelope. Two orientations of the envelope are shown for clarity. (f) Ab initio molecular envelope for Src^32KΔC illustrates the fit of the crystal structure of autoinhibited Src. TEXT PRINTED IN THE PICTURE: (a) ADP: Src^32KΔC Ki (mM): 0.03 ± 0.008 | (a) ANP: Src^32KΔC Ki (mM): 0.69 ± 0.140
as §4

Nc1ncnc2c1ncn2[C@@H]1O[C@H](COP(=O)(O)OP(=O)(O)O)[C@@H](O)[C@H]1O [ADP]
thermal stabilisation compared with other nucleotides (Itk^32K [1]): to a greater extent; also recorded: higher thermal stability
thermal stabilisation compared with other nucleotides (Src^32K [2]; Src^32K pY416, vs ATP): higher thermal stability with ADP than ATP
thermal stabilisation compared with other nucleotides (Src^32K [2]; Src^32K, same nucleotide concentrations, vs ATP or AMPPNP): to a greater extent; also recorded: higher thermal stability
Kd (Itk^32K [3]): 23.7 µM and 24 µM
Kd (Src^32K [4]; Mant-labelled nucleotide): 66 µM
fold difference in affinity, ADP tighter than AMPPNP (Src^32K [4]; direct Mant-nucleotide binding): approximately 6 fold
Ki (Src^32KΔC; 40 μM Src^32KΔC, 40 μM Mant-ADP, read-out: Ki (equilibrium inhibition constant)): 30 ± 8 µM
fold difference in Ki, ADP preferred over AMPPNP (Src^32KΔC; Src^32KΔC, displacement of Mant-ADP): approximately 23 fold
